In publication PMC4533939, “Targeting lysyl oxidase for molecular imaging in breast cancer” (Breast Cancer Research : BCR, 2015):
Where two headings read alike, the source gives them in different places.

What was measured:
EMT-6 tumors = assay type: in vivo, BALB/c mice
Procedure: Murine EMT-6 cells (5 × 10^6 cells in 100 μl of PBS) were injected into the upper left flank of female BALB/c mice (20–24 g; Charles River, Saint-Constant, QC, Canada). The EMT-6 tumor-bearing mice were imaged and used for ex vivo biodistribution experiments after allowing 7–10 days for the tumors to reach sizes of about 600 mm^3.
(§1) PET experiments were performed with [^18F]FB-GGGDPKGGGGG-NH2 injected into EMT-6 tumor-bearing BALB/c mice or into NIH-III mice bearing subcutaneous MCF-7 or MDA-MB-231 tumors, and tracer uptake was analyzed in vivo. For radiotracer injection, a catheter was placed into the tail vein of the mouse. While under anesthesia, mice were placed in the prone position with the medial axis parallel to the axial axis of the scanner and the thorax, abdomen and hind legs placed into the center of the field of view of the microPET R4 or Inveon PET/computed tomography (CT) scanner (Siemens Preclinical Solutions, Knoxville, TN, USA). A transmission scan for attenuation correction was not acquired. [^18F]FB-GGGDPKGGGGG-NH2 (4–5 MBq) in 100–150 μl of saline was injected intravenously through the catheter into the tail vein. The effects of BAPN were analyzed after intraperitoneal injection of 2 mg (100 mg/kg) of the inhibitor 4 h and 24 h before radiotracer injection. For the different experimental protocols, either an emission scan 60 min postinjection (dynamic experiments) was performed immediately or a 20 min postinjection PET scan acquisition (static scan followed by CT scan) was performed. Depending on the experimental setup, data acquisition continued for either 60 min or 20 min in three-dimensional list mode. The dynamic list mode data were sorted into sinograms with 53 time frames (10×2 s, 8×5 s, 6×10 s, 6×20 s, 8×60 s, 10×120 s and 5×300 s). The frames were reconstructed using ordered subset expectation maximization or maximum a posteriori reconstruction modes.
(§2) The pixel size was 0.085×0.085×0.12 cm, and the resolution in the center field of view was 1.8 mm. Correction for partial volume effects was not performed. The image files were further processed using the ROVER v2.0.51 software (ABX, Radeberg, Germany). Masks defining three-dimensional regions of interest (ROIs) were set, and the ROIs were defined by 50 % thresholding. Mean standardized uptake values (SUVmean = [activity/ml tissue]/[injected activity/body weight], mL/kg] were calculated for each ROI. Time–activity curves (TACs) were generated for the dynamic scans only. All semiquantified PET data are presented as mean ± SEM.

LOX = conditions: peptidyl lysine oxidation by LOX; cited from earlier work
Text: An alternative approach for specific targeting of LOX involves the use of oligopeptides. Nagan and Kagan have investigated collagen-like structures to explore peptide sequences derived from the lysine-containing N- and C-terminal telopeptides of collagen concerning their enzymatic conversion by LOX. […] It was concluded that the aspartic acid located two positions ...

MCF-7 tumors = assay type: in vivo, NIH-III nu/nu mice
Procedure: Human MCF-7 cells, which form xenografts in female athymic mice, were injected subcutaneously (2–5×10^6 cells in 100 μl of PBS) into 8–10-week-old female NIH-III nu/nu mice (Charles River, Wilmington, MA, USA). Before injection of the cells, all mice received a 0.72-mg pellet containing 17β-estradiol in a 60-day release preparation (Innovative Research of America, Sarasota, FL, USA).
(§3) The pellet was implanted subcutaneously into the upper right flank to provide a constant level of 17β-estradiol needed by the estrogen receptor (ER)-positive MCF-7 cells. Tumors were imaged 20–30 days after injection, with the tumors reaching sizes ranging from 200 to 400 mm^3. Human MDA-MB-231 cells (1×10^6 cells in 100 μl of PBS) were also injected subcutaneously into 8–10-week-old female NIH-III nu/nu mice. After 7–9 days, they reached a size of approximately 500 mm^3 and were suitable for the PET experiments.
PET experiments were performed with [^18F]FB-GGGDPKGGGGG-NH2 injected into EMT-6 tumor-bearing BALB/c mice or into NIH-III mice bearing subcutaneous MCF-7 or MDA-MB-231 tumors, and tracer uptake was analyzed in vivo. For radiotracer injection, a catheter was placed into the tail vein of the mouse. While under anesthesia, mice were placed in the prone position with the medial axis parallel to the axial axis of the scanner and the thorax, abdomen and hind legs placed into the center of the field of view of the microPET R4 or Inveon PET/computed tomography (CT) scanner (Siemens Preclinical Solutions, Knoxville, TN, USA). A transmission scan for attenuation correction was not acquired. […] The effects of BAPN were analyzed after intraperitoneal injection of 2 mg (100 mg/kg) of the inhibitor 4 h and 24 h before radiotracer injection. […]
(§4) The pixel size was 0.085×0.085×0.12 cm, and the resolution in the center field of view was 1.8 mm. […] Mean standardized uptake values (SUVmean = [activity/ml tissue]/[injected activity/body weight], mL/kg] were calculated for each ROI. Time–activity curves (TACs) were generated for the dynamic scans only. All semiquantified PET data are presented as mean ± SEM.

[1] = Radio-HPLC of plasma samples and quality control (retention time); assay type: physicochemical; conditions: Luna C18(2) 250×4.6 mm, water/0.2 % TFA - acetonitrile gradient, 1 ml/min; two more lipophilic radiometabolites eluted at 13.2 and 14.3 min
Procedure: (§5) Normal BALB/c mice received injections of approximately 25 MBq of [^18F]FB-GGGDPKGGGG. Venous blood samples were taken at 5, 15, 30 and 60 min postinjection and processed for determination of metabolic stability in vivo. Blood cells were separated by centrifugation (13,000 rpm for 5 min). Proteins in the supernatant were precipitated by addition of 2 volume parts of methanol followed by a second centrifugation step (13,000 rpm for 5 min). Radioactivity in blood components (cells, proteins and plasma) was measured using a Wallac Wizard 1480 3 automatic gamma counter. The clear plasma supernatant was examined using a Shimadzu HPLC system (Shimadzu Scientific Instruments, Columbia, MD, USA) equipped with a DGU-20A5 degasser, a SIL-20AHT autosampler, a LC-20AT pump, a SPD-M20A photo diode array detector and a RAMONA* radiodetector (Raytest Isotopenmessgeraete, Straubenhardt, Germany). The samples were analyzed using a Phenomenex Luna 10-μm C18(2) 100 Å, 250×4.6-mm column and the following gradients with water/0.2 % TFA as solvent A and acetonitrile as solvent B: 0–3 min 10 % B, 10 min 30 % B, 17 min 50 % B, 23 min 70 % B and 27–30 min 90 % B. The flow was constant at 1 ml/min, and the ultraviolet signals were measured at 210 nm and 254 nm.

MDA-MB-231 tumors = assay type: in vivo, NIH-III nu/nu mice
Procedure: as §3
as §1, with “Depending on the experimental setup, data acquisition continued for either 60 min or 20 min in three-dimensional list mode. The dynamic list mode data were sorted into sinograms with 53 time frames (10×2 s, 8×5 s, 6×10 s, 6×20 s, 8×60 s, 10×120 s and 5×300 s). The frames were reconstructed using ordered subset expectation maximization or maximum a posteriori reconstruction modes.” left out
as §4

[2] = design: species or system BALB/c mice; conditions: mouse, in vivo
Procedure: as §5

[3] = system: breast cancer tumor models; assay type: in vivo, mice; conditions: for tumor-to-blood ratio / tumor-to-muscle ratio: tumor model not stated
Procedure: as §1, §2

## N#CCCN [BAPN, β-aminopropionitrile, reference compound]
EMT-6 tumors; EMT-6 tumor, 100 mg/kg BAPN (about 2 mg per mouse) i.p. 4 h before [18F]FB-GGGDPKGGGGG-NH2
  reduction of maximum tumor uptake of the radiotracer (SUV5min): approximately 33%
EMT-6 tumors; EMT-6 tumor, BAPN predosing 4 h or 24 h
  effect on radiotracer tumor uptake at 60 min postinjection: no effect
EMT-6 tumors; muscle of EMT-6 tumor-bearing mice, BAPN predosing
  effect on radioactivity in muscle tissue: unaltered

## Ac-GGGDPKGGGGG-NH2 [oligopeptide substrate with favorable kinetic properties for LOX-mediated peptidyl lysine oxidation (Nagan and Kagan)]
LOX
  Michaelis constant (Km) among several collagen N-telopeptide derivatives: lowest
  kcat/Km among several collagen N-telopeptide derivatives: highest

## [^18F]FB-GGGDPKGGGGG-NH2 [[^18F]fluorobenzoate-GGGDPKGGGGG-NH2, 18F-labeled LOX-targeting oligopeptide PET radiotracer]
MCF-7 tumors; MCF-7 tumor, 4-5 MBq i.v., 5 min postinjection, mean ± SEM, n = 6
  SUV5min, tumor: 0.59±0.03
MCF-7 tumors; MCF-7 tumor, 60 min postinjection, mean ± SEM, n = 6
  SUV60min, tumor: 0.12±0.02
MCF-7 tumors; mouse, in vivo
  SUV60min, muscle tissue: 0.05±0.008
[1]
  HPLC retention time: 12.2 min
MDA-MB-231 tumors; MDA-MB-231 tumor, 4-5 MBq i.v., 5 min postinjection, mean ± SEM, n = 5
  SUV5min, tumor: 0.50±0.09
MDA-MB-231 tumors; MDA-MB-231 tumor, 60 min postinjection, mean ± SEM, n = 5
  SUV60min, tumor: 0.12±0.02
MDA-MB-231 tumors; mouse, in vivo
  SUV60min, muscle tissue: 0.04±0.004
EMT-6 tumors; EMT-6 tumor, 4-5 MBq i.v., 5 min postinjection, mean ± SEM, n = 4
  SUV5min, tumor: 0.63±0.08
EMT-6 tumors; EMT-6 tumor, 60 min postinjection, control and BAPN-predosed groups
  SUV60min, tumor, in the absence and presence of BAPN: 0.19–0.21
EMT-6 tumors; EMT-6 tumor, 60 min postinjection, mean ± SEM, n = 4
  SUV60min, tumor: 0.19±0.02
EMT-6 tumors; EMT-6 tumor, BAPN i.p. 24 h before radiotracer, mean ± SEM, n = 7, p > 0.05
  SUV5min, tumor, in the presence of BAPN: 0.52±0.05
EMT-6 tumors; mouse, in vivo
  SUV60min, muscle tissue: 0.03±0.004
[2]
  share of injected radiotracer found in the plasma compartment: > 60%
[3]; 5 min postinjection
  tumor-to-blood ratio: 0.3
  tumor-to-muscle ratio: 2.7
[3]; 60 min postinjection
  tumor-to-blood ratio: 2.3
  tumor-to-muscle ratio: 1
[3]; mouse, in vivo
  time to maximum SUV in tumor: 3 to 5 min
